Assay results reported in publication PMC4269415, “Replication Attempt: “Effect of BMAP-28 Antimicrobial Peptides on Leishmania Major Promastigote and Amastigote Growth: Role of Leishmanolysin in Parasite Survival”” (PLoS ONE, 2014).
Where “and” joins values, the source holds several entries; their conditions need not be identical. Identical values can stand only once. Like-named read-outs stand apart in the source and are kept apart here. Square brackets hold non-standard residues; d marks the D form. Ends that are not written are not given here. Peptide text beside a SMILES is read from it.

Experiments:
[1] = test system: Leishmania major promastigotes (strain MHOM/SN/74/SD); type: cell-based; details: for % Viability (mean), replication: % of untreated control, calculated from the dose response curve; for % Viability (mean), combined original and replication: meta-analysis combining original and replication studies; for d Effect Size (Cohen's d), combined: original and replication combined
Procedure: The promastigote viability assays were conducted by the Anti-Infectives Screening Core Facility at New York University School of Medicine (https://www.scienceexchange.com/facilities/anti-infectives-screening-and-insectary-core-facilities-nyu). All assays were performed by investigators blinded to the reagents under study. 500 µM stocks of peptides were made by resuspending 4 mg of each peptide (M.W. 3131.92) in 2.554 mL of distilled sterile water. Each peptide was tested in triplicate three independent times at 50 µM, 25 µM, 12.5 µM, 6.25 µM, 3.125 µM, 1.5625 µM, 0.78125 µM, and 0.390625 µM. L. major strain MHOM/SN/74/SD (ATCC, PRA-384) was used in these studies. These cells were routinely cultured at 26°C in M-199 medium (Gibco, Grand Island, NY), supplemented with 10% heat inactivated fetal calf serum (Hyclone, Logan) and Pen/Strep (Gibco, Grand Island, NY). Mid-log phase promastigotes at concentrations of 5×10^6 per well were seeded in 96-well tissue culture plates. Heat-killed parasites, prepared by incubation at 99°C for 30 minutes, served as positive controls for the viability assays. Peptides were incubated with the cells for 4 hours at 26°C. A 20 µL volume of PrestoBlue (Life Technologies, Carlsbad, CA) was added to each well and incubated at 37°C for 3 hours. Fluorescence at excitation 530 nm and 590 nm emission wavelengths was measured using a plate reader (VICTOR, Perkin Elmer, US). Background fluorescence from media alone controls was subtracted from each reading and promastigote viability was expressed as a percentage of the untreated control.
An independent-samples t-test was conducted to compare promastigote viability in peptide treated and untreated conditions. A Fisher combined probability test was used to combine the original and replication studies values into a single combined study value for each peptide and peptide concentration. To provide a standardized measure of the effect we used cohen's d.

[2] = test system: Leishmania major promastigotes; assay: Promastigote viability assay of the original study (Fig. 1A of Lynn et al.); type: cell-based; details: from data of ref Lynn et al. [5]
[3] = test system: Leishmania major promastigotes; details: 4 h, % of untreated control, determined from bar graph Fig. 1A, ref Lynn et al. [5], cited from earlier work
Procedure: Table 1 Promastigote viability assay of Leishmania major when treated with 0.5 µM or 2 µM BMAP-28 variants. | column: % Viability (mean) || This study describes an attempt to replicate experiments from the paper “Effect of BMAP-28 Antimicrobial Peptides on Leishmania major Promastigote and Amastigote Growth: Role of Leishmanolysin in Parasite Survival,” which was submitted to the Reproducibility Initiative for independent validation. The cathelicidin bovine myeloid antimicrobial peptide 28 (BMAP-28) and its isomers were previously shown to have potent antiparasitic activity against Leishmania major.

[4] = test system: mammalian epithelial cells and monocytes; details: cited from earlier work
[5] = 0.5 µM peptide, 4 h, three biological replicates
[6] = 2 µM peptide, 4 h, three biological replicates

| Molecule | % Viability (mean), replication [1, 5] | % Viability (mean), combined original and replication ([1]; 0.5 µM peptide) | d Effect Size (Cohen's d), combined ([1]; 2 µM peptide vs untreated) | % Viability (mean), replication [1, 6] | IC50 ([1]; 4 h) | IC90 ([1]; 4 h) | d Effect Size (Cohen's d), original study ([2]; 0.5 µM peptide vs untreated) | d Effect Size (Cohen's d), original study ([2]; 2 µM peptide vs untreated) | % Viability (mean), original study ([3]; 0.5 µM peptide) | % Viability (mean), original study ([3]; 2 µM peptide) | d Effect Size (Cohen's d), replication ([1]; 0.5 µM peptide vs untreated) | d Effect Size (Cohen's d), combined ([1]; 0.5 µM peptide vs untreated) | d Effect Size (Cohen's d), replication ([1]; 2 µM peptide vs untreated) | % Viability (mean), combined original and replication ([1]; 2 µM peptide) | IC50 ([1]; 4 h at 26°C, PrestoBlue fluorescence, dose-response 0.39-50 µM, three biological replicates in triplicate, read-out: IC50, promastigote viability) | IC90 ([1]; 4 h at 26°C, PrestoBlue fluorescence, dose-response 0.39-50 µM, three biological replicates, read-out: IC90, promastigote viability) | toxicity to mammalian epithelial cells and monocytes (in words) [4] |
| --- | --- | --- | --- | --- | --- | --- | --- | --- | --- | --- | --- | --- | --- | --- | --- | --- | --- |
| CC[C@@H](C)[C@@H](NC(=O)[C@H]1CCCN1C(=O)CNC(=O)[C@@H](Cc1ccc(O)cc1)NC(=O)[C@@H](CCCCN)NC(=O)[C@@H](CCCCN)NC(=O)[C@@H](Cc1c[nH]c2ccccc12)NC(=O)[C@@H](C)NC(=O)[C@@H](CCCNC(=N)N)NC(=O)[C@@H](CC(C)C)NC(=O)[C@H](NC(=O)[C@@H](CCCCN)NC(=O)[C@@H](CCCNC(=N)N)NC(=O)CNC(=O)[C@@H](CC(C)C)NC(=O)[C@@H](CO)NC(=O)[C@@H](CCCNC(=N)N)NC(=O)[C@@H](CC(C)C)NC(=O)CNC(=O)CN)[C@H](C)CC)C(=O)N[C@@H](C(=O)N[C@@H](C(=O)N1CCC[C@@H]1C(=O)N[C@@H](C(=O)N[C@@H](C(=O)N[C@H](CCCNC(=N)N)C(=O)N[C@@H](C(=O)NCC(=O)O)[C@H](C)CC)[C@H](C)CC)[C@H](C)CC)C(C)C)[C@H](C)CC [D-BMAP-28] (H-GG[dL][dR][dS][dL]G[dR][dK][dI][dL][dR][dA][dW][dK][dK][dY]G[dP][dI][dI][dV][dP][dI][dI][dR][dI]G-OH; N-terminus assumed) | 92.40% | not significantly modified | 16.67 | 73.26% | 3.55 µM | 9.85 µM | 2.55 | 37.8 | 68.75% | 6% and 5.50% | – | – | – | – | – | – | – |
| GGLRSLGRKILRAWKKYGPIIVPIIRIG [L-BMAP-28] | – | – | – | – | 17.1 µM | 25.2 µM | – | – | – | – | – | – | – | – | – | – | – |
| GGLRSLGRKILRAWKKYGPIIVPIIRI-NH2 [L-BMAP-28-NH2, amidated L-BMAP-28 peptide] | 95.55% | 99.40% | 2.65 | 94.15% | – | – | – | – | – | – | 0.62 | 0.11 | 0.81 | 75.45% | 5.83 µM | 10.2 µM | – |
| CC[C@@H](C)[C@@H](NC(=O)CN)C(=O)N[C@H](CCCNC(=N)N)C(=O)N[C@@H](C(=O)N[C@@H](C(=O)N1CCC[C@@H]1C(=O)N[C@@H](C(=O)N[C@@H](C(=O)N[C@@H](C(=O)N1CCC[C@@H]1C(=O)NCC(=O)N[C@H](Cc1ccc(O)cc1)C(=O)N[C@H](CCCCN)C(=O)N[C@H](CCCCN)C(=O)N[C@H](Cc1c[nH]c2ccccc12)C(=O)N[C@H](C)C(=O)N[C@H](CCCNC(=N)N)C(=O)N[C@H](CC(C)C)C(=O)N[C@@H](C(=O)N[C@H](CCCCN)C(=O)N[C@H](CCCNC(=N)N)C(=O)NCC(=O)N[C@H](CC(C)C)C(=O)N[C@H](CO)C(=O)N[C@H](CCCNC(=N)N)C(=O)N[C@H](CC(C)C)C(=O)NCC(=O)NCC(=O)O)[C@H](C)CC)[C@H](C)CC)[C@H](C)CC)C(C)C)[C@H](C)CC)[C@H](C)CC [RI-BMAP-28] (H-G[dI][dR][dI][dI][dP][dV][dI][dI][dP]G[dY][dK][dK][dW][dA][dR][dL][dI][dK][dR]G[dL][dS][dR][dL]GG-OH; N-terminus assumed) | 94.64% | not significantly modified | 6.31 | 76.64% | 4.55 µM | 20 µM | −1.20 | 6.88 | 103.00% | 18% and 17.50% | – | – | – | – | – | – | limited toxicity |
